Source: ChEMBL document CHEMBL3585263, “Novel Octahydropyrrolo[3,4-c]pyrroles Are Selective Orexin-2 Antagonists: SAR Leading to a Clinical Candidate” (J Med Chem, 2015)

Assays:
[1] = Apparent permeability from basolateral to apical side in human Caco2/TC7 cells at 10 uM; conditions: Caco-2
[2] = test system: Rattus norvegicus; test: Ex vivo OX2 receptor occupancy in Sprague-Dawley rat brain at 30 mg/kg, po after 15 mins by autoradiographic analysis; format: functional
[3] = target: T1, Cytochrome P450 1A2 (Homo sapiens, UniProt P05177); test: Inhibition of CYP1A2 in human liver microsomes using phenacetin as substrate by LC-MS/MS analysis
T1 sequence (P05177 whole entry): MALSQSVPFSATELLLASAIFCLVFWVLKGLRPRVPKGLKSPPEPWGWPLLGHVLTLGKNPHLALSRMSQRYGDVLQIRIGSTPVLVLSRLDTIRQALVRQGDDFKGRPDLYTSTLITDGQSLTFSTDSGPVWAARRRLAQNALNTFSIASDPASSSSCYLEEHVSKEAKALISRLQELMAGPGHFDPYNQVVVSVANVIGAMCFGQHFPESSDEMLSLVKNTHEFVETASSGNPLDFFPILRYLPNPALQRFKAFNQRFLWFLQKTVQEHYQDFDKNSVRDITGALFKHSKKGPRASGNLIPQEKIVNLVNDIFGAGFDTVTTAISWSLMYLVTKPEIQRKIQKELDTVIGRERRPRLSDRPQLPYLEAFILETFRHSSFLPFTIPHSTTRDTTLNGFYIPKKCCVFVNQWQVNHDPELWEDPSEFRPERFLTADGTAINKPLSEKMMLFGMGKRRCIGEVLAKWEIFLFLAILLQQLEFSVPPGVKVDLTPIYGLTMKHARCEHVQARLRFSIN

[4] = Oral bioavailability in Sprague-Dawley rat at 10 mg/kg; format: ADME, organism-based; conditions: in vivo
[5] = Protein binding in rat brain at 5 uM after 5 hrs by equilibrium dialysis method; format: ADME, tissue-based; conditions: read-out: PB (converted)
[6] = Clearance in Sprague-Dawley rat at 10 mg/kg, po and 1 mg/kg, iv; format: ADME, organism-based; conditions: in vivo
[7] = Half life in Sprague-Dawley rat at 1 mg/kg, iv; format: ADME, organism-based; conditions: in vivo
[8] = target: Voltage-gated inwardly rectifying potassium channel KCNH2 (Homo sapiens, UniProt Q12809); test: Inhibition of [3H]-astemizole binding to human ERG expressed in HEK293 cells
Voltage-gated inwardly rectifying potassium channel KCNH2, sequence (Q12809 whole entry): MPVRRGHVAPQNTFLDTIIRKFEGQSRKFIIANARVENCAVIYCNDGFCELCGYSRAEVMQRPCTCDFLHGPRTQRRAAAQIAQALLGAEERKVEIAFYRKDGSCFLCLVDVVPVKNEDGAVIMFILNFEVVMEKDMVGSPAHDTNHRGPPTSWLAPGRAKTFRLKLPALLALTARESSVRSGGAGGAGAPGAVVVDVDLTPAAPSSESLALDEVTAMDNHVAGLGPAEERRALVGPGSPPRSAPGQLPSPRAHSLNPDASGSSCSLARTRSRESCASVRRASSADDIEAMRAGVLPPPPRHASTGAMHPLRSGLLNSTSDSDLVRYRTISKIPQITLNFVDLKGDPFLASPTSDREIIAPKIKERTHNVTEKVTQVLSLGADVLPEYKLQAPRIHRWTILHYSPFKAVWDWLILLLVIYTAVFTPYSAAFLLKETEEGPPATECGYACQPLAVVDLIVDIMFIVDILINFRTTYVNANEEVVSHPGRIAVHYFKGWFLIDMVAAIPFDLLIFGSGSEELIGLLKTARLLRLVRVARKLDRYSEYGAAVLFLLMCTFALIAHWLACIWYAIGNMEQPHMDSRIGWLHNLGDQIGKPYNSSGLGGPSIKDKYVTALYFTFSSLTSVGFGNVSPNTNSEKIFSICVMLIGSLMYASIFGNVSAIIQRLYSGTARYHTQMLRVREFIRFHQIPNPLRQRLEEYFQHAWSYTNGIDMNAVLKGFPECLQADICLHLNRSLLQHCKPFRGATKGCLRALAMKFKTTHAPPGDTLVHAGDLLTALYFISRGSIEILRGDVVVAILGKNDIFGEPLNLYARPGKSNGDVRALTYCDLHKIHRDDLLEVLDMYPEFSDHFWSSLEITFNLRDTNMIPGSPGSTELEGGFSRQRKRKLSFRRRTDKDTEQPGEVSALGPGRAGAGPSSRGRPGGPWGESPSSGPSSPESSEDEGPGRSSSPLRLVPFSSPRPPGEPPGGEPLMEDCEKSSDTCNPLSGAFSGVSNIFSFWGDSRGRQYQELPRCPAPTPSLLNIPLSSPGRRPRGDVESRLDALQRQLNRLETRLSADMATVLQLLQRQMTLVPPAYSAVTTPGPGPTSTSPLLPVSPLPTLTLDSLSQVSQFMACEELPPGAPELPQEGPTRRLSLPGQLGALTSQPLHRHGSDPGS

[9] = Apparent permeability from apical to basolateral side in human Caco2/TC7 cells at 10 uM; conditions: Caco-2
[10] = Volume of distribution at steady state in Sprague-Dawley rat at 10 mg/kg, po and 1 mg/kg, iv; format: ADME, organism-based; conditions: in vivo, read-out: Vdss
[11] = Plasma protein binding in human at 1 uM after 6 hrs by equilibrium dialysis method; format: ADME, cell-free; conditions: read-out: PPB (converted)
[12] = Plasma protein binding in rat at 1 uM after 6 hrs by equilibrium dialysis method; format: ADME, cell-free; conditions: read-out: PPB (converted)
[13] = test system: Rattus norvegicus; test: Ex vivo OX2 receptor occupancy in Sprague-Dawley rat brain at 10 mg/kg, po after 30 mins by autoradiographic analysis; format: functional
[14] = target: T2, Orexin receptor type 2 (Rattus norvegicus, UniProt P56719); test: Binding affinity to rat OX2 receptor
T2 sequence (P56719 whole entry): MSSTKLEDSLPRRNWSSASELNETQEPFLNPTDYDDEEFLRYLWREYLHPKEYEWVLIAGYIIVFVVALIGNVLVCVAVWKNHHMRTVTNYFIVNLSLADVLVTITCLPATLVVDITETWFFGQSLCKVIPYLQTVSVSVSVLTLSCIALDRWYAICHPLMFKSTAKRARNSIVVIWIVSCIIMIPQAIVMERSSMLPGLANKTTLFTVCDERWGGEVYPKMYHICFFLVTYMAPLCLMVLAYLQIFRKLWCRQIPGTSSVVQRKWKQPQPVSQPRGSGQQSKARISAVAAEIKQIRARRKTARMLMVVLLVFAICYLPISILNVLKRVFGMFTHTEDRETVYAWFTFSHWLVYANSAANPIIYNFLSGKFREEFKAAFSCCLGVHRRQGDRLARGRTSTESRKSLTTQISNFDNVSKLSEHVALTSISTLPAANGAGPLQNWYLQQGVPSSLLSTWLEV

[15] = target: T3, Orexin receptor type 2 (Homo sapiens, UniProt O43614); test: Binding affinity to human OX2 receptor
T3 sequence (O43614 whole entry): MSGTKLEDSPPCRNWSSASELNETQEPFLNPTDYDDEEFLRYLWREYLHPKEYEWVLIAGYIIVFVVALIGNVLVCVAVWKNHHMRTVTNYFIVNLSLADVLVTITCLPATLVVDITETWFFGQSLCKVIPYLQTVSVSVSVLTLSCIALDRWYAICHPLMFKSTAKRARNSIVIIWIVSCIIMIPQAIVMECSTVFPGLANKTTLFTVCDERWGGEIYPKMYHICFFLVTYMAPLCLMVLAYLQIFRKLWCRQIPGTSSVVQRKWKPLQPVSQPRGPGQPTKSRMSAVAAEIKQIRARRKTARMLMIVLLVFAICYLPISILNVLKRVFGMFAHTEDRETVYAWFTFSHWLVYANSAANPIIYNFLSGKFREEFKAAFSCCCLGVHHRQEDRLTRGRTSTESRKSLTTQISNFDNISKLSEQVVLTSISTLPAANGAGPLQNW

[16] = target: T4, Orexin/Hypocretin receptor type 1 (Homo sapiens, UniProt O43613); test: Binding affinity to human OX1 receptor
T4 sequence (O43613 whole entry): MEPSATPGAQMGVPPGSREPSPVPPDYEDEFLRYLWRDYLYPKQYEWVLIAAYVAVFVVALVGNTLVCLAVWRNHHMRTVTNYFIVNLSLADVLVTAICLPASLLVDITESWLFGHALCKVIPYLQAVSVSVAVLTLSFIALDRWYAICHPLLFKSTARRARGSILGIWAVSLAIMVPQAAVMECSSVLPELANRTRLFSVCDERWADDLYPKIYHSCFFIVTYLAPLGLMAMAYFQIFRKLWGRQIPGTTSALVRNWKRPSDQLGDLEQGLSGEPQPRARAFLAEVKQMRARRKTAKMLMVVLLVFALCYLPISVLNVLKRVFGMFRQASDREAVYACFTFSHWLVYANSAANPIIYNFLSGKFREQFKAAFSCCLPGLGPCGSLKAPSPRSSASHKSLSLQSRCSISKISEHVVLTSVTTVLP

[17] = Metabolic stability in human liver microsomes assessed as extraction ratio at 1 uM measured over 1 hr by LC-MS/MS analysis
[18] = Metabolic stability in rat liver microsomes assessed as extraction ratio at 1 uM measured over 1 hr by LC-MS/MS analysis
[19] = test system: Rattus norvegicus; test: Ex vivo OX2 receptor occupancy in Sprague-Dawley rat brain at 30 mg/kg, po after 30 mins by autoradiographic analysis; format: functional
[20] = Cmax in Sprague-Dawley rat at 10 mg/kg, po; format: ADME, organism-based; set-up: dose 10 mg/kg, route oral; conditions: in vivo

SMILES | Papp B→A at 10 µM [1] [×10⁻⁶ cm/s] | IC50 [3] [µM] | bioavailability [4] [%] | fraction unbound at 5 h, 5 µM [5] | clearance [6] [mL/min/kg] | half-life [7] [min] | Papp A→B at 10 µM [9] [×10⁻⁶ cm/s] | Vd [10] [L/kg] | fraction unbound at 6 h, 1 µM [11] | fraction unbound at 6 h, 1 µM [12] | Ki [14] [nM] | Ki [15] [nM] | Ki [16] [nM] | hepatic extraction ratio at 1 h, 1 µM [17] | hepatic extraction ratio at 1 h, 1 µM [18] | Cmax [20] [ng/mL] | Occ [2] [%] | IC50 [8] [µM] | Occ [13] [%] | Occ [19] [%]
Cc1cc(C)nc(N2C[C@H]3CN(C(=O)c4cccc(F)c4-n4nccn4)C[C@H]3C2)n1 | 49.7 | 3.1 | 21 | 0.156 | 57 | 12 | 62.3 | 0.7 | 0.095 | 0.273 | – | – | – | – | – | – | 49 | 6 | – | –
Cc1cc(C)nc(N2C[C@H]3CN(C(=O)c4ccccc4-c4ncn[nH]4)C[C@H]3C2)n1 | – | – | 22 | – | 150 | 22.8 | – | 3.9 | – | – | 39 | 30 | 3650 | 0.73 | 0.51 | – | 0 | > 10 | – | –
Cc1cc(C)nc(N2C[C@H]3CN(C(=O)c4ccc(F)cc4-n4nccn4)C[C@H]3C2)n1 | 26.8 | 9.3 | 18 | – | 65.5 | 22.2 | 58.1 | 1.5 | 0.075 | 0.116 | 14 | – | – | – | – | – | – | > 10 | – | 72

The remaining molecules from weak to strong by Ki [14], led by results:

Papp B→A at 10 µM [1] [×10⁻⁶ cm/s] | IC50 [3] [µM] | bioavailability [4] [%] | fraction unbound at 5 h, 5 µM [5] | clearance [6] [mL/min/kg] | half-life [7] [min] | Papp A→B at 10 µM [9] [×10⁻⁶ cm/s] | Vd [10] [L/kg] | fraction unbound at 6 h, 1 µM [11] | fraction unbound at 6 h, 1 µM [12] | Ki [14] [nM] | Ki [15] [nM] | Ki [16] [nM] | hepatic extraction ratio at 1 h, 1 µM [17] | hepatic extraction ratio at 1 h, 1 µM [18] | Cmax [20] [ng/mL] | SMILES | Occ [2] [%] | IC50 [8] [µM] | Occ [13] [%] | Occ [19] [%]
– | – | – | – | – | – | – | – | – | – | 7 | 9.8 | 471 | – | – | – | Cc1cc(C)nc(N2C[C@H]3CN(C(=O)c4ccccc4-c4cccs4)C[C@H]3C2)n1 | – | – | 26 | –
– | – | 8 | – | 52.1 | 16.2 | – | 0.7 | – | – | 2 | – | – | – | – | 148 | Cc1cc(C)nc(N2C[C@H]3CN(C(=O)c4ccccc4-n4nccn4)C[C@H]3C2)n1 | – | > 10 | – | 67
